For 30 molecules, IC50 results are on record in patent US20230023559A1, “ARYLMETHYLENE HETEROCYCLIC COMPOUNDS AS KV1.3 POTASSIUM SHAKER CHANNEL BLOCKERS” (D. E. Shaw Research, LLC, priority 2019, published 2023).

The target in one assay is T1, Kv1.3 potassium channel (Homo sapiens, UniProt P22001).
T1 construct: expressed in transfected cells
Kind of assay: Kv1.3 potassium channel blocker activity, automated whole-cell patch clamp (Patchliner). Type of assay: cell-based. As to conditions: CHO-K1 cells stably expressing Kv1.3; whole cell current inhibition; read-out: Kv1.3_IC50. The method, boiled down:
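Peak-current block was recorded on stable Kv1.3 CHO-K1 cells by automated patch clamp, stepping from a −90 mV holding potential to +40 mV for 100 ms at 0.1 Hz with 10 s breaks between trains. Online P/4 leak subtraction, 10 kHz sampling; compound exposure under 10 s per train.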

The next assay has as its target hERG channel (Homo sapiens, UniProt Q12809). Kind of assay: hERG electrophysiology, automated whole-cell patch clamp (Patchliner). (In general: The hERG channel carries a current that helps repolarise heart muscle cells.)

T1 sequence (P22001 whole entry): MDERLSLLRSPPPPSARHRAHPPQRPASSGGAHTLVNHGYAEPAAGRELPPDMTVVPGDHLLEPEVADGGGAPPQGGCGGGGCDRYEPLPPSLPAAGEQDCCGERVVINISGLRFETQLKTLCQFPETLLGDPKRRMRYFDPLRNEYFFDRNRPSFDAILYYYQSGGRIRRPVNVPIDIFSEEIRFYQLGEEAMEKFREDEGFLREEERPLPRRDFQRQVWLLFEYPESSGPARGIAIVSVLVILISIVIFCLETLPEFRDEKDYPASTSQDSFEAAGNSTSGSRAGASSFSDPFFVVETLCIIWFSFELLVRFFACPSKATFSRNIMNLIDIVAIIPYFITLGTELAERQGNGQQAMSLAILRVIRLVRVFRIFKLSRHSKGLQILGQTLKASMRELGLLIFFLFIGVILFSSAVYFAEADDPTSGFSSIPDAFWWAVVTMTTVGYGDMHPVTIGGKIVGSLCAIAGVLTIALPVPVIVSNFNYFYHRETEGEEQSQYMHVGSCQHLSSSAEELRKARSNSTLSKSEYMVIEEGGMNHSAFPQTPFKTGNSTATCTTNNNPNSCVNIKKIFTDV
hERG channel, sequence (Q12809 whole entry): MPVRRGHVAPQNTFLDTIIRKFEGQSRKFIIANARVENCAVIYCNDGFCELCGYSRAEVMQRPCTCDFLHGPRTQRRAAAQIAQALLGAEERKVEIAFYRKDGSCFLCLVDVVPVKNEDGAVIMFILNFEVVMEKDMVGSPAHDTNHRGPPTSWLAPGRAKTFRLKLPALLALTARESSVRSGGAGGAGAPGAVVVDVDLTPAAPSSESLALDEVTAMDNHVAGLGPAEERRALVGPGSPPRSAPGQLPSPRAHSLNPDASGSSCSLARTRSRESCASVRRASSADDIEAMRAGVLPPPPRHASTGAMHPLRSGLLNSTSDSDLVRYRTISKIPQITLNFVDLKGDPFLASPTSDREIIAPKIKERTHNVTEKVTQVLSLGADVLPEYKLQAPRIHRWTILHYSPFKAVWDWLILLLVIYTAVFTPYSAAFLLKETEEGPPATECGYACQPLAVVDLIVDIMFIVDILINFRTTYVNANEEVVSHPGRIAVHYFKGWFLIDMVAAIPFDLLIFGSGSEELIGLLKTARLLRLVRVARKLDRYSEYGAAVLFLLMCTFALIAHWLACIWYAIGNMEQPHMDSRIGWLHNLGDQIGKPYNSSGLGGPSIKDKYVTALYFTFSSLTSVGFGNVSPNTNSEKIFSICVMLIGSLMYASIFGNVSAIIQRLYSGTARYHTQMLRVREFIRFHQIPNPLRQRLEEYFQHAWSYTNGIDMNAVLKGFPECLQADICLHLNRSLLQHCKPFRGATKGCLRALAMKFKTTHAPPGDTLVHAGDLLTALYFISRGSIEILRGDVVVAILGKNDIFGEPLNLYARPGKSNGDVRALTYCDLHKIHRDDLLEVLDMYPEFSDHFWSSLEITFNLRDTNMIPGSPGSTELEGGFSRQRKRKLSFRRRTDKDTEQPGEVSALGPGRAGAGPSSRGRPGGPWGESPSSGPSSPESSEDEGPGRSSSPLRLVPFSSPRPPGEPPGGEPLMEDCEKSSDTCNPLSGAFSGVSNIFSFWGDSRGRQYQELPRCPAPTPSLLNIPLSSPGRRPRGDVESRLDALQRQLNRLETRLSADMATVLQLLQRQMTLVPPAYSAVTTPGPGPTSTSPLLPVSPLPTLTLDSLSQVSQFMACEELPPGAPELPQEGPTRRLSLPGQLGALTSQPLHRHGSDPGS

A word on the IC50: it is the concentration at which inhibition is half-maximal. Regarding `N[C@H](CO)C(=O)N1CCC([C@@H](N)c2cc(Cl)c(Cl)cc2O)CC1` [Compound 171, (2R)-2-amino-1-[4-[(R)-amino(4,5-dichloro-2-hydroxyphenyl)methyl]piperidin-1-yl]-3-hydroxypropan-1-one], the values for the IC50 on Kv1.3 potassium channel and at hERG channel were under 0.5 µM and over 30 µM, respectively.

As for `C[C@@H](O)[C@H](N)C(=O)N1CCC([C@@H](N)c2cc(Cl)c(Cl)cc2O)CC1` [Compound 174, (2S,3R)-2-amino-1-[4-[(R)-amino(4,5-dichloro-2-hydroxyphenyl)methyl]piperidin-1-yl]-3-hydroxybutan-1-one bis (trifluoroacetic acid)], the IC50 at Kv1.3 potassium channel is under 10 µM; against hERG channel, over 30 µM.

For the molecule `N[C@@H](c1cc(Cl)c(Cl)cc1O)C1CCN(C(=O)c2cn[nH]n2)CC1` [Compound 157, 2-[(R)-amino[1-(1H-1,2,3-triazole-4-carbonyl)piperidin-4-yl]methyl]-4,5-dichlorophenol trifluoroacetic acid], the IC50 is under 0.5 µM at Kv1.3 potassium channel and over 30 µM against hERG channel.

Take `COC[C@H](O)C(=O)N1CCC([C@@H](N)c2cc(Cl)c(Cl)cc2O)CC1` [Compound 181, (2S)-1-[4-[(R)-amino(4,5-dichloro-2-hydroxyphenyl)methyl]piperidin-1-yl]-2-hydroxy-3-methoxypropan-1-one trifluoroacetic acid]: the IC50 on Kv1.3 potassium channel is under 0.5 µM; at hERG channel it was over 30 µM.

For `N[C@@H](c1cc(Cl)c(Cl)cc1O)C1CCN(C(=O)[C@@H](O)CO)CC1` (single isomer, unassigned) [Compound 120], the values for the IC50 on Kv1.3 potassium channel and at hERG channel were under 0.5 µM and over 30 µM, respectively.

Turning to `N[C@@H](c1c(O)cc(Cl)c(Cl)c1Cl)C1CCN(C(=O)[C@H](O)CO)CC1` [Compound 188, (R)-1-(4-((R)-amino(2,3,4-trichloro-6-hydroxyphenyl)methyl)piperidin-1-yl)-2,3-dihydroxypropan-1-one Trifluoroacetic Acid], the figures for the IC50 at Kv1.3 potassium channel and on hERG channel were under 10 µM and over 30 µM, respectively.

Consider `COCC(=O)N1CCC([C@@H](N)c2cc(Cl)c(Cl)cc2O)CC1` [Compound 134, 1-[4-[(R)-amino(4,5-dichloro-2-hydroxyphenyl)methyl]piperidin-1-yl]-2-methoxyethan-1-one trifluoroacetic acid], for which the results for the IC50 at Kv1.3 potassium channel and on hERG channel were under 0.5 µM and under 30 µM, respectively.

For `N[C@@H](c1cc(Cl)c(Cl)cc1O)C1CCN(C(=O)C2(O)CNC2)CC1` [Compound 219, 3-[4-[(R)-amino(4,5-dichloro-2-hydroxyphenyl)methyl]piperidine-1-carbonyl]azetidin-3-ol Trifluoroacetic Acid], the IC50 at Kv1.3 potassium channel was under 0.5 µM; against hERG channel, over 30 µM.

For `NC(c1cc(Cl)c(Cl)cc1O)C1CCN(C(=O)C2COC2)CC1` (stereo not drawn) [Compound 67, 2-[amino[1-(oxetane-3-carbonyl)piperidin-4-yl]methyl]-4,5-dichlorophenol], the IC50 is under 0.5 µM on Kv1.3 potassium channel and under 30 µM at hERG channel.

As for `Cc1cc(O)c([C@H](N)C2CCN(C(=O)c3ccc4c(c3)CNC4=O)CC2)cc1Cl` [Compound 324, 5-[4-[(R)-amino(5-chloro-2-hydroxy-4-methylphenyl)methyl]piperidine-1-carbonyl]-2,3-dihydroisoindol-1-one trifluoroacetic acid], the IC50 was under 0.5 µM at Kv1.3 potassium channel and over 30 µM against hERG channel.

Consider `Oc1cc(Cl)c(Cl)cc1C(O)C1CCNCC1` (stereo not drawn) [Compound 2, 4,5-dichloro-2-[hydroxy(piperidin-4-yl)methyl]phenol], for which the IC50 was under 10 µM on Kv1.3 potassium channel and over 30 µM on hERG channel.

As to `O=C([C@@H]1CCNC1)N1CCC(C(O)c2c(O)ccc(Cl)c2Cl)CC1` (stereo partly drawn) [Compound 126, 3,4-dichloro-2-[hydroxy([1-[(3R)-pyrrolidine-3-carbonyl]piperidin-4-yl])methyl]phenol Trifluoroacetic Acid], the results for the IC50 at Kv1.3 potassium channel and against hERG channel were under 10 µM and over 30 µM, respectively.

As for `C[C@@H](O)[C@@H](O)C(=O)N1CCC([C@@H](N)c2cc(Cl)c(Cl)cc2O)CC1` (mixture of isomers) [Compound 281, 1-[4-[(R)-amino(4,5-dichloro-2-hydroxyphenyl)methyl]piperidin-1-yl]-(2R,3R)-rel-dihydroxybutan-1-one trifluoro-acetic acid], the IC50 on Kv1.3 potassium channel was under 0.5 µM; at hERG channel, over 30 µM.

As for `CO[C@@H](CO)C(=O)N1CCC([C@@H](N)c2cc(Cl)c(Cl)cc2O)CC1` [Compound 185, (2S)-1-[4-[(R)-amino(4,5-dichloro-2-hydroxyphenyl)methyl]piperidin-1-yl]-3-hydroxy-2-methoxypropan-1-one trifluoroacetic acid], the IC50 at Kv1.3 potassium channel is under 10 µM; against hERG channel, over 30 µM.

As to `N[C@@H](c1cc(Cl)c(C(F)(F)F)cc1O)C1CCN(C(=O)[C@H](O)CO)CC1` [Compound 284, (2R)-1-[4-[(R)-amino[5-chloro-2-hydroxy-4-(trifluoromethyl)phenyl]methyl]piperidin-1-yl]-2,3-dihydroxypropan-1-one], the IC50 was under 10 µM on Kv1.3 potassium channel and over 30 µM at hERG channel.

On to `Nc1cccc(N2CCC([C@@H](N)c3cc(Cl)c(Cl)cc3O)CC2)n1` [Compound 146, (R)-2-(amino(1-(6-aminopyridin-2-yl)piperidin-4-yl)methyl)-4,5-dichlorophenol Trifluoroacetic Acid], for which the results for the IC50 on Kv1.3 potassium channel and against hERG channel were under 10 µM and under 30 µM, respectively.

Turning to `N[C@@H](c1cc(Cl)c(Cl)cc1O)C1CCN(C(=O)c2c[nH]c(=O)cn2)CC1` [Compound 186, (R)-5-(4-(amino(4,5-dichloro-2-hydroxyphenyl)methyl)piperidine-1-carbonyl) pyrazin-2(1H)-one], the results for the IC50 on Kv1.3 potassium channel and at hERG channel were under 0.5 µM and over 30 µM, respectively.

Take `N[C@@H](c1cc(Cl)c(Cl)cc1O)C1CCN(C(=O)C(CO)CO)CC1` [Compound 303, 1-[4-[(R)-amino(4,5-dichloro-2-hydroxyphenyl)methyl]piperidin-1-yl]-3-hydroxy-2-(hydroxymethyl) propan-1-one trifluoroacetic acid]: the IC50 at Kv1.3 potassium channel was under 0.5 µM; on hERG channel, over 30 µM.

Take `NC(=O)N1CCC([C@@H](N)c2cc(Cl)c(Cl)cc2O)CC1` (single isomer, unassigned) [Compound 82]: the IC50 on Kv1.3 potassium channel is under 10 µM; against hERG channel, over 30 µM.

With `C[C@](O)(CO)C(=O)N1CCC([C@@H](N)c2cc(Cl)c(Cl)cc2O)CC1` (single isomer, unassigned; isomer 2) [Compound 218], the IC50 is under 10 µM at Kv1.3 potassium channel and over 30 µM against hERG channel.

For the molecule `N[C@@H](c1cc(Cl)c(Cl)cc1O)C1CCN(C(=O)C2CCNC(=O)C2)CC1` (stereo partly drawn) [Compound 172, 4-[4-[(R)-amino(4,5-dichloro-2-hydroxyphenyl)methyl]piperidine-1-carbonyl] piperidin-2-one trifluoroacetic acid], the IC50 was under 10 µM at Kv1.3 potassium channel and over 30 µM against hERG channel.

Take `N[C@@H](c1cc(Cl)c(C2CC2)cc1O)C1CCN(C(=O)[C@H](O)CO)CC1` [Compound 289, (2R)-1-[4-[(R)-amino(5-chloro-4-cyclopropyl-2-hydroxyphenyl)methyl]piperidin-1-yl]-2,3-dihydroxypropan-1-one]: the results for the IC50 on Kv1.3 potassium channel and against hERG channel were under 0.5 µM and over 30 µM, respectively.

As to `N[C@@H](c1cc(Cl)c(Cl)cc1O)C1CCN(C(=O)C2(O)CC2)CC1` [Compound 140, 2-[(R)-amino[1-(1-hydroxycyclo-propanecarbonyl)piperidin-4-yl]methyl]-4,5-dichlorophenol trifluoroacetic acid], the values for the 50% inhibitory concentration (IC50) on Kv1.3 potassium channel and on hERG channel were under 10 µM and under 30 µM, respectively.

Turning to `CNC(c1cc(Cl)c(Cl)cc1O)C1CCNCC1` (stereo not drawn) [Compound 31, 4,5-dichloro-2-[(methylamino)(piperidin-4-yl)methyl]phenol Trifluoroacetic Acid], the IC50 at Kv1.3 potassium channel is under 10 µM; on hERG channel it was over 30 µM.

As to `Nc1[nH]ncc1C(=O)N1CCC([C@@H](N)c2cc(Cl)c(Cl)cc2O)CC1` [Compound 211, 2-[(R)-amino[1-(5-amino-1H-pyrazole-4-carbonyl)piperidin-4-yl]methyl]-4,5-dichlorophenol trifluoroacetic acid], the IC50 on Kv1.3 potassium channel is under 0.5 µM; at hERG channel, over 30 µM.

Regarding `COCCS(=O)(=O)N1CCC([C@@H](N)c2cc(Cl)c(Cl)cc2O)CC1` [Compound 132, 2-[(R)-amino[1-(2-methoxyethanesulfonyl)piperidin-4-yl]methyl]-4,5-dichlorophenol Trifluoroacetic Acid], the IC50 on Kv1.3 potassium channel was under 10 µM; at hERG channel, under 30 µM.

In the case of `Cc1cc(O)c([C@H](N)C2CCN(C(=O)c3ccc4nccn4c3)CC2)cc1Cl` [Compound 238, 2-[(R)-amino(1-[imidazo[1,2-a]pyridine-6-carbonyl]piperidin-4-yl)methyl]-4-chloro-5-methylphenol trifluoroacetic acid], the IC50 on Kv1.3 potassium channel is under 0.5 µM; against hERG channel it was under 30 µM.

As to `N[C@@H](c1cc(Cl)c(Cl)cc1O)C1CCN(C(=O)[C@@H]2CCC(=O)NC2)CC1` (single isomer, unassigned; isomer 2) [Compound 222], the IC50 on Kv1.3 potassium channel was under 0.5 µM; on hERG channel it was over 30 µM.

Regarding `N[C@@H](c1cc(Cl)c(Cl)cc1O)C1CCN(C(=O)[C@H]2CNC(=O)OC2)CC1` (single isomer, unassigned; isomer 1) [Compound 338], the concentration for half-maximal inhibition (IC50) on Kv1.3 potassium channel is under 0.5 µM; at hERG channel, over 30 µM.

For `COc1ccc(C(=O)N2CCC([C@@H](N)c3cc(Cl)c(C)cc3O)CC2)cn1` [Compound 243, 2-[(R)-amino[1-(6-methoxypyridine-3-carbonyl)piperidin-4-yl]methyl]-4-chloro-5-methylphenol trifluoroacetic acid], the IC50 on Kv1.3 potassium channel is under 0.5 µM; against hERG channel, under 30 µM.
